In this assay the target is T1, human Fatty Acid Synthase (Homo sapiens, UniProt P49327).
T1 construct: made in house
The experiment in a line: Human FAS enzyme assay (decrease in NADPH fluorescence). Type of assay: biochemical. Conditions: % inhibition at a concentration of 100 μmolar. The essentials:
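In-house human FAS was preincubated with compound and NADPH for 15 min at room temperature in 0.1 M Tris pH 7.5 with EDTA, glutathione and BSA. Malonyl CoA and acetyl CoA (500 μM and 150 μM in the added mix) were then added for 60 min. IC50 came from time-zero-subtracted NADPH fluorescence (340/460 nm).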

A word on the inhibition: it is the change of the read-out against control, counted positive when it falls.

T1 sequence (P49327 whole entry): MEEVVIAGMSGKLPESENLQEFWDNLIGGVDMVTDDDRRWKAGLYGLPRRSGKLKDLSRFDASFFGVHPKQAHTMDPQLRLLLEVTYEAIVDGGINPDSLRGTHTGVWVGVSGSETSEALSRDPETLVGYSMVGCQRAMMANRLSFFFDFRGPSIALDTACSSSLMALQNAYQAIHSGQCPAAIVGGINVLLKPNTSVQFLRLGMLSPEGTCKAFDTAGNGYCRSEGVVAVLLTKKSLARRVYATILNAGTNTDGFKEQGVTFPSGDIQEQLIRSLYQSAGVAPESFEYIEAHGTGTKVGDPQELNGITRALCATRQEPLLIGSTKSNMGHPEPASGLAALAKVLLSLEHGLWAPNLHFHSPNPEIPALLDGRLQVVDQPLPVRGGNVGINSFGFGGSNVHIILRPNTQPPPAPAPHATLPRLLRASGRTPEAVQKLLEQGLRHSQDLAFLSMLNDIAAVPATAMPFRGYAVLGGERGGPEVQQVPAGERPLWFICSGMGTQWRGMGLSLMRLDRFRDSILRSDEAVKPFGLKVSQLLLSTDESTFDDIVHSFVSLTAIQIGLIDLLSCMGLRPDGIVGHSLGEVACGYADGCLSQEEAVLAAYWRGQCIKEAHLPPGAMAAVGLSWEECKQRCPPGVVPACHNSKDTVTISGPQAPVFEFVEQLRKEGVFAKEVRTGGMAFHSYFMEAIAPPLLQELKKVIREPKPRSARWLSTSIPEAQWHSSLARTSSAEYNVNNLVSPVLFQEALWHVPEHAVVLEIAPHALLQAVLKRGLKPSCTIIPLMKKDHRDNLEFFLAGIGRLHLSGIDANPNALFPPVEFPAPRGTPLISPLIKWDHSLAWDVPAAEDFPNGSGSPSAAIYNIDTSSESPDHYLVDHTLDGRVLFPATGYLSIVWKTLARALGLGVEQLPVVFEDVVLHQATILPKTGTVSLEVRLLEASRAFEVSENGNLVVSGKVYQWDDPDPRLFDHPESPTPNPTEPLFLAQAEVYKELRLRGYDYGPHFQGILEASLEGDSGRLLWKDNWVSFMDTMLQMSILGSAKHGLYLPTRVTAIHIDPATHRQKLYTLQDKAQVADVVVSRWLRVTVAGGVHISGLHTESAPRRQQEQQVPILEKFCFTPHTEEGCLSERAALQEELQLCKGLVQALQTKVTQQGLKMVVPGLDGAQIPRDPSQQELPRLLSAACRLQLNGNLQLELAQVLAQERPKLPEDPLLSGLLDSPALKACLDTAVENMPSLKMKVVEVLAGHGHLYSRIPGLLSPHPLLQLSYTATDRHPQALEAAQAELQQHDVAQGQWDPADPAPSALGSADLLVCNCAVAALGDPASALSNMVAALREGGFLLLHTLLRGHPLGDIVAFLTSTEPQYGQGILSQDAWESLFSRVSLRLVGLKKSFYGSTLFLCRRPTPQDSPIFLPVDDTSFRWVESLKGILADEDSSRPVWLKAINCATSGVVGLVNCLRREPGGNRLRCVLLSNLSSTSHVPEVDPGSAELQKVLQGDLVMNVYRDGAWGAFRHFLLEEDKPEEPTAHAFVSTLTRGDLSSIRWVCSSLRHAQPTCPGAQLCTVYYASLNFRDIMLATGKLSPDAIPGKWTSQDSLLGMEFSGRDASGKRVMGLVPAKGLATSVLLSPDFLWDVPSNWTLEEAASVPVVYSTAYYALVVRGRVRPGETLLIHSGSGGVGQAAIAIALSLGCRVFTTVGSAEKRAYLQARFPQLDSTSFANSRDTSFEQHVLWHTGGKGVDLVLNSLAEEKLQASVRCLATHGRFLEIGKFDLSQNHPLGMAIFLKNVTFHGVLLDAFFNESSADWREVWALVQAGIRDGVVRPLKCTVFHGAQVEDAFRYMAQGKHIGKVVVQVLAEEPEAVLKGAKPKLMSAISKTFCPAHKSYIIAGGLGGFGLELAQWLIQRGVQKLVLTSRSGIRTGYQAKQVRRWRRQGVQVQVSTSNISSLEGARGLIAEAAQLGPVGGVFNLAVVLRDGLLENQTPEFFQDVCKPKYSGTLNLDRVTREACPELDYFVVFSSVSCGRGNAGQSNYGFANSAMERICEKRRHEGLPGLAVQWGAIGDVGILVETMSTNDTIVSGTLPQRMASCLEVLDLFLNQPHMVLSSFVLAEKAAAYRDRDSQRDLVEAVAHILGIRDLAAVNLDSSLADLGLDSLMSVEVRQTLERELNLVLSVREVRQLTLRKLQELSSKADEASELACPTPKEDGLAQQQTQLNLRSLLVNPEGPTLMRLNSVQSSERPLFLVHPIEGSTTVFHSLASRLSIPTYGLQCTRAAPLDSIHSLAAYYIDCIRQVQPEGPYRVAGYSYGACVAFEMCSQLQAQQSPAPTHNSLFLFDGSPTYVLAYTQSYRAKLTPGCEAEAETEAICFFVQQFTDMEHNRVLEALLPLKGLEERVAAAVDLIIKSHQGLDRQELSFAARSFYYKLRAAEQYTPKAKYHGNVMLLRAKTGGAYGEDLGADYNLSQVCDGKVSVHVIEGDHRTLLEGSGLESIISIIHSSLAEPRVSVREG

For the compound `Cc1ccc(C(=O)N2CCC(c3ccc(C#N)cc3)CC2)cc1NC(=O)N[C@H]1CCNC1` [Example 213, 1-[5-[4-(4-cyanophenyl)piperidine-1-carbonyl]-2-methyl-phenyl]-3-[(3S)-pyrrolidin-3-yl]urea], the inhibition at 100 µM came to 88.6%.

Turning to `Cc1ccc(C(=O)N2CCC(c3ccc(C#N)cc3)CC2)cc1NC(=O)NCCN(C)S(=O)(=O)C(C)C` [Example 214, 1-[5-[4-(4-cyanophenyl)piperidine-1-carbonyl]-2-methyl-phenyl]-3-[2-(methyl-propan-2-ylsulfonyl-amino)ethyl]urea], the inhibition at 100 µM is 89.8%.

As to `Cc1ccc(C(=O)N2CCC(c3ccc(C#N)cc3)CC2)cc1NC(=O)NCCCNS(C)(=O)=O` [Example 215, 1-[5-[4-(4-cyanophenyl)piperidine-1-carbonyl]-2-methyl-phenyl]-3-(3-methanesulfonamidopropyl)urea], the inhibition at 100 µM is 100%.

For `CCS(=O)(=O)NCCCNC(=O)Nc1cc(C(=O)N2CCC(c3ccc(C#N)cc3)CC2)ccc1C` [Example 216, 3-[5-[4-(4-cyanophenyl)piperidine-1-carbonyl]-2-methyl-phenyl]-1-[3-(ethylsulfonylamino)propyl]urea], the inhibition at 100 µM was determined as 92.4%. With `Cc1ccc(C(=O)N2CCC(c3ccc(C#N)cc3)CC2)cc1NC(=O)NCCCNS(=O)(=O)C(C)C` [Example 217, 1-[5-[4-(4-cyanophenyl)piperidine-1-carbonyl]-2-methyl-phenyl]-3-[3-(propan-2-ylsulfonylamino)propyl]urea], the inhibition at 100 µM was determined as 87%. The figure for `Cc1ccc(C(=O)N2CCC(c3ccc(C#N)cc3)CC2)cc1NC(=O)N[C@@H]1CCN(S(C)(=O)=O)C1` [Example 218, 1-[5-[4-(4-cyanophenyl)piperidine-1-carbonyl]-2-methyl-phenyl]-3-[(3R)-1-methylsulfonylpyrrolidin-3-yl]urea] is 84.4%; for `CCS(=O)(=O)N1CC[C@@H](NC(=O)Nc2cc(C(=O)N3CCC(c4ccc(C#N)cc4)CC3)ccc2C)C1` [Example 219, 3-[5-[4-(4-cyanophenyl)piperidine-1-carbonyl]-2-methyl-phenyl]-1-[(3R)-1-ethylsulfonylpyrrolidin-3-yl]urea] it is 88.8%. On to `CCC(=O)N1CC[C@H](NC(=O)Nc2cc(C(=O)N3CCC(c4ccc(C#N)cc4)CC3)ccc2C)C1` [Example 220, 3-[5-[4-(4-cyanophenyl)piperidine-1-carbonyl]-2-methyl-phenyl]-1-[(3S)-1-propanoylpyrrolidin-3-yl]urea], for which the inhibition at 100 µM stood at 96.7%. Take `Cc1ccc(C(=O)N2CCC(c3ccc(C#N)cc3)CC2)cc1NC(=O)N[C@H]1CCN(S(C)(=O)=O)C1` [Example 221, 1-[5-[4-(4-cyanophenyl)piperidine-1-carbonyl]-2-methyl-phenyl]-3-[(3S)-1-methylsulfonylpyrrolidin-3-yl]urea]: the inhibition at 100 µM was 102%. With `CCS(=O)(=O)N1CC[C@H](NC(=O)Nc2cc(C(=O)N3CCC(c4ccc(C#N)cc4)CC3)ccc2C)C1` [Example 222, 3-[5-[4-(4-cyanophenyl)piperidine-1-carbonyl]-2-methyl-phenyl]-1-[(3S)-1-ethylsulfonylpyrrolidin-3-yl]urea], the inhibition at 100 µM was found to be 90.7%.

Turning to `Cc1ccc(C(=O)N2CCC(c3ccc(C#N)cc3)CC2)cc1NC(=O)NCCCS(C)(=O)=O` [Example 223, 1-[5-[4-(4-cyanophenyl)piperidine-1-carbonyl]-2-methyl-phenyl]-3-(3-methylsulfonylpropyl)urea], the inhibition at 100 µM amounted to 92.8%. The value for `N#Cc1ccc(C2CCN(C(=O)c3cc(NC(=O)NCc4ccccc4)ccc3F)CC2)cc1` [Example 224, 1-benzyl-3-[3-[4-(4-cyanophenyl)piperidine-1-carbonyl]-4-fluoro-phenyl]urea] was 71.9%; that for `Cc1ccc(C(=O)N2CCC(c3ccc(C#N)cc3)CC2)cc1NC(=O)NC1CC1` [Example 225, 1-[5-[4-(4-cyanophenyl)piperidine-1-carbonyl]-2-methyl-phenyl]-3-cyclopropyl-urea] was 89.9%; that for `CCC(C)NC(=O)Nc1cc(C(=O)N2CCC(c3ccc(C#N)cc3)CC2)ccc1C` (centres unmarked) [Example 226, 1-butan-2-yl-3-[5-[4-(4-cyanophenyl)piperidine-1-carbonyl]-2-methyl-phenyl]urea] was 84.2%. The value for `CCCNC(=O)Nc1cc(C(=O)N2CCC(c3ccc(C#N)cc3)CC2)ccc1C` [Example 227, 3-[5-[4-(4-cyanophenyl)piperidine-1-carbonyl]-2-methyl-phenyl]-1-propyl-urea] was 90.1%; that for `Cc1ccc(C(=O)N2CCC(c3ccc(C#N)cc3)CC2)cc1NC(=O)NC1CCCCC1` [Example 228, 1-[5-[4-(4-cyanophenyl)piperidine-1-carbonyl]-2-methyl-phenyl]-3-cyclohexyl-urea] was 82.1%; that for `Cc1ccc(C(=O)N2CCC(c3ccc(C#N)cc3)CC2)cc1NC(=O)NC(C)C(C)C` (centres unmarked) [Example 229, 1-[5-[4-(4-cyanophenyl)piperidine-1-carbonyl]-2-methyl-phenyl]-3-(3-methylbutan-2-yl)urea] was 88.7%. `Cc1ccc(C(=O)N2CCC(c3ccc(C#N)cc3)CC2)cc1NC(=O)NCCC(=O)NCCO` [Example 230, 3-[[5-[4-(4-cyanophenyl)piperidine-1-carbonyl]-2-methyl-phenyl]carbamoylamino]-N-(2-hydroxyethyl)propanamide]: the inhibition at 100 µM was found to be 94.3%. The figure for `Cc1ccc(C(=O)N2CCC(c3ccc(C#N)cc3)CC2)cc1NC(=O)NCCNC(=O)CC(=O)N(C)C` [Example 231, N-[2-[[5-[4-(4-cyanophenyl)piperidine-1-carbonyl]-2-methyl-phenyl]carbamoylamino]ethyl]-N′,N′-dimethyl-propanediamide] is 90.3%.

Consider `CC(=O)NCC(C)NC(=O)Nc1cc(C(=O)N2CCC(c3ccc(C#N)cc3)CC2)ccc1C` (centres unmarked) [Example 232, N-[2-[[5-[4-(4-cyanophenyl)piperidine-1-carbonyl]-2-methyl-phenyl]carbamoylamino]propyl]acetamide], for which the inhibition at 100 µM was 94.2%. The value for `Cc1ccc(C(=O)N2CCC(c3ccc(C#N)cc3)CC2)cc1NC(=O)NCCCNC(=O)N1CCOCC1` [Example 233, N-[3-[[5-[4-(4-cyanophenyl)piperidine-1-carbonyl]-2-methyl-phenyl]carbamoylamino]propyl]morpholine-4-carboxamide] was 86.5%; that for `Cc1ccc(C(=O)N2CCC(c3ccc(C#N)cc3)CC2)cc1NC(=O)NCCNC(N)=O` [Example 234, 3-[2-(carbamoylamino)ethyl]-1-[5-[4-(4-cyanophenyl)piperidine-1-carbonyl]-2-methyl-phenyl]urea] was 91.5%; that for `CCCNC(=O)CCCNC(=O)Nc1cc(C(=O)N2CCC(c3ccc(C#N)cc3)CC2)ccc1C` [Example 235, 4-[[5-[4-(4-cyanophenyl)piperidine-1-carbonyl]-2-methyl-phenyl]carbamoylamino]-N-propyl-butanamide] was 95.8%. The value for `COC(=O)CNC(=O)CNC(=O)Nc1cc(C(=O)N2CCC(c3ccc(C#N)cc3)CC2)ccc1C` [Example 237, Methyl 2-[[2-[[5-[4-(4-cyanophenyl)piperidine-1-carbonyl]-2-methyl-phenyl]carbamoylamino]acetyl]amino]acetate] was 90.9%; that for `Cc1ccc(C(=O)N2CCC(c3ccc(C#N)cc3)CC2)cc1NC(=O)NCC(=O)N(C)C` [Example 238, 2-[[5-[4-(4-cyanophenyl)piperidine-1-carbonyl]-2-methyl-phenyl]carbamoylamino]-N,N-dimethyl-acetamide] was 89.9%.

Take `Cc1ccc(C(=O)N2CCC(c3ccc(C#N)cc3)CC2)cc1NC(=O)N[C@@H](CCS(C)(=O)=O)C(=O)O` [Example 240, (2S)-2-[[5-[4-(4-cyanophenyl)piperidine-1-carbonyl]-2-methyl-phenyl]carbamoylamino]-4-methylsulfonyl-butanoic acid]: the inhibition at 100 µM is 99.3%. The value for `Cc1ccc(C(=O)N2CCC(c3ccc(C#N)cc3)CC2)cc1NC(=O)NCCC(=O)Nc1cnoc1C` [Example 241, 3-[[5-[4-(4-cyanophenyl)piperidine-1-carbonyl]-2-methyl-phenyl]carbamoylamino]-N-(5-methyl-1,2-oxazol-4-yl)propanamide] was 92.4%. As for `Cc1ccc(C(=O)N2CCC(c3ccc(C#N)cc3)CC2)cc1NC(=O)NCCC(=O)N(CCO)CCO` [Example 242, 3-[[5-[4-(4-cyanophenyl)piperidine-1-carbonyl]-2-methyl-phenyl]carbamoylamino]-N,N-bis(2-hydroxyethyl)propanamide], the inhibition at 100 µM worked out at 90.6%.

In the case of `Cc1ccc(C(=O)N2CCC(c3ccc(C#N)cc3)CC2)cc1NC(=O)NCc1ccc(S(C)(=O)=O)cc1` [Example 243, 1-[5-[4-(4-cyanophenyl)piperidine-1-carbonyl]-2-methyl-phenyl]-3-[(4-methylsulfonylphenyl)methyl]urea], the inhibition at 100 µM came to 99.9%. The value for `Cc1ccc(C(=O)N2CCC(c3ccc(C#N)cc3)CC2)cc1NC(=O)NCCCn1cccn1` [Example 244, 1-[5-[4-(4-cyanophenyl)piperidine-1-carbonyl]-2-methyl-phenyl]-3-(3-pyrazol-1-ylpropyl)urea] was 96.2%; that for `Cc1cc(CNC(=O)Nc2cc(C(=O)N3CCC(c4ccc(C#N)cc4)CC3)ccc2C)on1` [Example 245, 1-[5-[4-(4-cyanophenyl)piperidine-1-carbonyl]-2-methyl-phenyl]-3-[(3-methyl-1,2-oxazol-5-yl)methyl]urea] was 94.3%; that for `Cc1cc(CNC(=O)Nc2cc(C(=O)N3CCC(c4ccc(C#N)cc4)CC3)ccc2C)no1` [Example 246, 1-[5-[4-(4-cyanophenyl)piperidine-1-carbonyl]-2-methyl-phenyl]-3-[(5-methyl-1,2-oxazol-3-yl)methyl]urea] was 105%.

The values above are taken from US20090118332A1, “Therapeutic Agents - 551” (AstraZeneca AB, priority 2006, published 2009).
